Experimental data taken from patent publication US20230255953A1, “USE OF ROLUPERIDONE IN PREVENTING RELAPSE IN SCHIZOPHRENIA PATIENTS” (Minerva Neurosciences, Inc., priority 2022, published 2023).

System: patients with negative symptoms of schizophrenia
Test: Integrated analysis (pooled ITT): CGI-S and CGI-I
Format: in vivo, human
Conditions: for CGI-I Score, Difference (95% CI) in LS mean (vs placebo) / CGI-I Score, LS mean (SE) / CGI-I Score, Mean (SD) / CGI-I Score, Median / CGI-S Score change from Baseline, LS mean (SE) / CGI-S Score change from Baseline, Mean (SD) / CGI-S Score change from Baseline, Median / CGI-S Score, Difference (95% CI) in LS mean (vs placebo): DB; for CGI-I Score, Difference (95% CI) in LS mean (vs placebo) / CGI-I Score, LS mean (SE) / CGI-I Score, Mean (SD) / CGI-I Score, Median / CGI-S Score change from Baseline, LS mean (SE) / CGI-S Score change from Baseline, Mean (SD) / CGI-S Score change from Baseline, Median / CGI-S Score, Difference (95% CI) in LS mean (vs placebo) / CGI-I score, LS mean compared with placebo / CGI-S score, LS mean change from Baseline compared with placebo: pooled ITT; for Clinical Global Impression of Severity, Change from Baseline (LS Means [SEM]) / Clinical Global Impression of Improvement (LS Means [SEM]): ITT; for Clinical Global Impression of Improvement (LS Means [SEM]): observed data, MMRM with Baseline CGI-S as covariate
Text: The primary integrated analysis of the efficacy of Roluperidone compared with placebo for the treatment of negative symptoms of schizophrenia is based on the change from Baseline in the PANSS Marder's negative symptoms factor score (in this document referred to as NSFS) to Week 12. Efficacy is also supported by the analysis of change from Baseline in the PSP Total score and the CGI-S to Week 12.
The CGI-S is a clinician-rated scale that is designed to rate the severity of the patient's illness at the time of assessment, including knowledge of the patient's history, psychosocial circumstances, symptoms, behavior, and the impact of the symptoms on the patient's ability to function relative to the clinician's past experience with patients who have the same diagnosis and similar improvement with treatment. Considering total clinical experience, a patient is assessed on severity of mental illness at the time of rating, where 1=normal (not at all ill); 2=borderline mentally ill; 3=mildly ill; 4=moderately ill; 5=markedly ill; 6=severely ill; or 7=extremely ill.
The Efficacy data from Study Nos. 1 and 2 were pooled. The majority of patients in the pooled ITT population completed the DB period (502 patients overall, 66.3%), with similar rates in each treatment group (placebo: 69.8%, 32 mg Roluperidone: 65.3%, and 64 mg Roluperidone: 63.8%) (Table 12). The majority (62.7%) of those who completed the DB period entered the OL period. The most common reason for discontinuation during the DB period among patients overall was withdrawal of consent (15.6%), followed by adverse events (7.3%) and lack of efficacy (5.4%) (Table 12). […] Approximately twice as many patients in the Roluperidone groups (32 mg: 8.5%; 64 mg: 9.1%) discontinued due to adverse events compared with patients in the placebo group (4.3%). More patients in the placebo group discontinued due to lack of efficacy (6.7%) than in the Roluperidone groups (32 mg: 4.4%; 64 mg: 5.1%). The low number of patients who discontinued due to lack of efficacy or withdrawal of consent probably reflects a low level of worsening of positive symptoms.
The integrated analysis supporting the efficacy of Roluperidone as a treatment for the negative symptoms of schizophrenia in adults is presented below.

Q: With “1H-Isoindol-1-one,2-[ [1-[2-(4-fluorophenyl)-2-oxoethyl]-4-piperidinyl]methyl]-2,3-dihydro-, hydrochloride, hydrate (1:1:2) [Roluperidone]” as the substance, how does the “CGI-I Score, Difference (95% CI) in LS mean (vs placebo)” value (shortened to “CGI-I Score, Difference (95% CI)”) (32 mg, Week 2) read?
A: 0.0

Q: What about the “CGI-I Score, LS mean (SE)” value (32 mg, Week 2) of the same substance?
A: 3.9 (0.05)

Q: What about the “CGI-I Score, Mean (SD)” value (32 mg, Week 2) of the same substance?
A: 3.9 (0.68)

Q: What about the “CGI-I Score, Median” value (32 mg, Week 2) of the same substance?
A: 4.0

Q: And the “CGI-S Score change from Baseline, LS mean (SE)” value (“CGI-S Score change … (SE)” for short) (32 mg, Week 2)?
A: −0.1 (0.04)

Q: What about the “CGI-S Score change from Baseline, Mean (SD)” value (from here on “CGI-S Score change … (SD)”) (32 mg, Week 2) of the same substance?
A: −0.1 (0.47)

Q: And the “CGI-S Score change from Baseline, Median” value (32 mg, Week 2)?
A: 0.0

Q: What about the “CGI-S Score, Difference (95% CI) in LS mean (vs placebo)” value (shortened to “CGI-S Score, Difference (95% CI)”) (32 mg, Week 2) of the same substance?
A: 0.0

Q: What about the “CGI-I Score, Difference (95% CI)” value (32 mg, Week 4) of the same substance?
A: −0.2

Q: And the “CGI-I Score, LS mean (SE)” value (32 mg, Week 4)?
A: 3.6 (0.05)

Q: What about the “CGI-I Score, Mean (SD)” value (32 mg, Week 4) of the same substance?
A: 3.6 (0.76)

Q: And the “CGI-I Score, Median” value (32 mg, Week 4)?
A: 4.0

Q: What about the “CGI-S Score change … (SE)” value (32 mg, Week 4) of the same substance?
A: −0.1 (0.03)

Q: And the “CGI-S Score change … (SD)” value (32 mg, Week 4)?
A: −0.1 (0.50)

Q: And the “CGI-S Score change from Baseline, Median” value (32 mg, Week 4)?
A: 0.0

Q: And the “CGI-S Score, Difference (95% CI)” value (32 mg, Week 4)?
A: −0.1

Q: And the “CGI-I Score, Difference (95% CI)” value (32 mg, Week 8)?
A: −0.1

Q: What about the “CGI-I Score, LS mean (SE)” value (32 mg, Week 8) of the same substance?
A: 3.5 (0.06)

Q: And the “CGI-I Score, Mean (SD)” value (32 mg, Week 8)?
A: 3.4 (0.80)

Q: And the “CGI-I Score, Median” value (32 mg, Week 8)?
A: 3.0

Q: And the “CGI-S Score change … (SE)” value (32 mg, Week 8)?
A: −0.2 (0.04)

Q: And the “CGI-S Score change … (SD)” value (32 mg, Week 8)?
A: −0.3 (0.58)

Q: What about the “CGI-S Score change from Baseline, Median” value (32 mg, Week 8) of the same substance?
A: 0.0

Q: And the “CGI-S Score, Difference (95% CI)” value (32 mg, Week 8)?
A: −0.1

Q: And the “CGI-I Score, Difference (95% CI)” value (32 mg, Week 12)?
A: −0.0

Q: And the “CGI-I Score, LS mean (SE)” value (32 mg, Week 12)?
A: 3.5 (0.07)

Q: What about the “CGI-I Score, Mean (SD)” value (32 mg, Week 12) of the same substance?
A: 3.4 (0.82)

Q: And the “CGI-I Score, Median” value (32 mg, Week 12)?
A: 3.0

Q: And the “CGI-S Score change … (SE)” value (32 mg, Week 12)?
A: −0.3 (0.05)

Q: What about the “CGI-S Score change … (SD)” value (32 mg, Week 12) of the same substance?
A: −0.4 (0.65)

Q: And the “CGI-S Score change from Baseline, Median” value (32 mg, Week 12)?
A: 0.0

Q: And the “CGI-S Score, Difference (95% CI)” value (32 mg, Week 12)?
A: −0.1

Q: What about the “Clinical Global Impression of Severity, Change from Baseline (LS Means [SEM])” value (32 mg, Week 12) of the same substance?
A: −0.3 (0.05)

Q: And the “Clinical Global Impression of Improvement (LS Means [SEM])” value (32 mg, Week 12)?
A: 3.5 (0.07)

Q: What about the “CGI-I score, LS mean compared with placebo” value (32 mg, Week 12) of the same substance?
A: −0.0

Q: What about the “CGI-S score, LS mean change from Baseline compared with placebo” value (32 mg, Week 12) of the same substance?
A: −0.1

Q: And the “CGI-I Score, Difference (95% CI)” value (64 mg, Week 2)?
A: 0.0

Q: What about the “CGI-I Score, LS mean (SE)” value (64 mg, Week 2) of the same substance?
A: 3.8 (0.05)

Q: What about the “CGI-I Score, Mean (SD)” value (64 mg, Week 2) of the same substance?
A: 3.8 (0.74)

Q: What about the “CGI-I Score, Median” value (64 mg, Week 2) of the same substance?
A: 4.0

Q: And the “CGI-S Score change … (SE)” value (64 mg, Week 2)?
A: −0.1 (0.04)

Q: What about the “CGI-S Score change … (SD)” value (64 mg, Week 2) of the same substance?
A: −0.1 (0.55)

Q: What about the “CGI-S Score change from Baseline, Median” value (64 mg, Week 2) of the same substance?
A: 0.0

Q: What about the “CGI-S Score, Difference (95% CI)” value (64 mg, Week 2) of the same substance?
A: −0.0

Q: What about the “CGI-I Score, Difference (95% CI)” value (64 mg, Week 4) of the same substance?
A: −0.2

Q: What about the “CGI-I Score, LS mean (SE)” value (64 mg, Week 4) of the same substance?
A: 3.6 (0.05)

Q: What about the “CGI-I Score, Mean (SD)” value (64 mg, Week 4) of the same substance?
A: 3.5 (0.72)

Q: And the “CGI-I Score, Median” value (64 mg, Week 4)?
A: 4.0

Q: And the “CGI-S Score change … (SE)” value (64 mg, Week 4)?
A: −0.2 (0.03)

Q: And the “CGI-S Score change … (SD)” value (64 mg, Week 4)?
A: −0.3 (0.56)

Q: What about the “CGI-S Score change from Baseline, Median” value (64 mg, Week 4) of the same substance?
A: 0.0

Q: What about the “CGI-S Score, Difference (95% CI)” value (64 mg, Week 4) of the same substance?
A: −0.2

Q: What about the “CGI-I Score, Difference (95% CI)” value (64 mg, Week 8) of the same substance?
A: −0.2

Q: What about the “CGI-I Score, LS mean (SE)” value (64 mg, Week 8) of the same substance?
A: 3.4 (0.06)

Q: And the “CGI-I Score, Mean (SD)” value (64 mg, Week 8)?
A: 3.4 (0.81)

Q: What about the “CGI-I Score, Median” value (64 mg, Week 8) of the same substance?
A: 3.0

Q: And the “CGI-S Score change … (SE)” value (64 mg, Week 8)?
A: −0.3 (0.04)

Q: What about the “CGI-S Score change … (SD)” value (64 mg, Week 8) of the same substance?
A: −0.3 (0.66)

Q: And the “CGI-S Score change from Baseline, Median” value (64 mg, Week 8)?
A: 0.0

Q: And the “CGI-S Score, Difference (95% CI)” value (64 mg, Week 8)?
A: −0.2

Q: And the “CGI-I Score, Difference (95% CI)” value (64 mg, Week 12)?
A: −0.2

Q: And the “CGI-I Score, LS mean (SE)” value (64 mg, Week 12)?
A: 3.4 (0.07)

Q: What about the “CGI-I Score, Mean (SD)” value (64 mg, Week 12) of the same substance?
A: 3.3 (0.85)

Q: And the “CGI-I Score, Median” value (64 mg, Week 12)?
A: 3.0

Q: What about the “CGI-S Score change … (SE)” value (64 mg, Week 12) of the same substance?
A: −0.4 (0.05)

Q: And the “CGI-S Score change … (SD)” value (64 mg, Week 12)?
A: −0.4 (0.69)

Q: What about the “CGI-S Score change from Baseline, Median” value (64 mg, Week 12) of the same substance?
A: 0.0

Q: What about the “CGI-S Score, Difference (95% CI)” value (64 mg, Week 12) of the same substance?
A: −0.2

Q: And the “Clinical Global Impression of Severity, Change from Baseline (LS Means [SEM])” value (64 mg, Week 12)?
A: −0.4 (0.05)

Q: What about the “Clinical Global Impression of Improvement (LS Means [SEM])” value (64 mg, Week 12) of the same substance?
A: 3.4 (0.07)

Q: What about the “CGI-I score, LS mean compared with placebo” value (64 mg, Week 12) of the same substance?
A: −0.2

Q: And the “CGI-S score, LS mean change from Baseline compared with placebo” value (64 mg, Week 12)?
A: −0.2

Q: What about the “CGI-I Score, Mean (SD)” value (Roluperidone Total, Week 2) of the same substance?
A: 3.9 (0.71)

Q: And the “CGI-I Score, Median” value (Roluperidone Total, Week 2)?
A: 4.0

Q: And the “CGI-S Score change … (SD)” value (Roluperidone Total, Week 2)?
A: −0.1 (0.51)

Q: What about the “CGI-S Score change from Baseline, Median” value (Roluperidone Total, Week 2) of the same substance?
A: 0.0

Q: And the “CGI-I Score, Mean (SD)” value (Roluperidone Total, Week 4)?
A: 3.6 (0.74)

Q: What about the “CGI-I Score, Median” value (Roluperidone Total, Week 4) of the same substance?
A: 4.0

Q: And the “CGI-S Score change … (SD)” value (Roluperidone Total, Week 4)?
A: −0.2 (0.54)

Q: What about the “CGI-S Score change from Baseline, Median” value (Roluperidone Total, Week 4) of the same substance?
A: 0.0

Q: And the “CGI-I Score, Mean (SD)” value (Roluperidone Total, Week 8)?
A: 3.4 (0.81)

Q: And the “CGI-I Score, Median” value (Roluperidone Total, Week 8)?
A: 3.0

Q: And the “CGI-S Score change … (SD)” value (Roluperidone Total, Week 8)?
A: −0.3 (0.62)

Q: And the “CGI-S Score change from Baseline, Median” value (Roluperidone Total, Week 8)?
A: 0.0

Q: What about the “CGI-I Score, Mean (SD)” value (Roluperidone Total, Week 12) of the same substance?
A: 3.3 (0.83)

Q: What about the “CGI-I Score, Median” value (Roluperidone Total, Week 12) of the same substance?
A: 3.0

Q: And the “CGI-S Score change … (SD)” value (Roluperidone Total, Week 12)?
A: −0.4 (0.67)

Q: What about the “CGI-S Score change from Baseline, Median” value (Roluperidone Total, Week 12) of the same substance?
A: 0.0
